IC50 data for 28 compounds are collected here from patent publication US10023570B2 (Array BioPharma, Inc., priority 2015, dated 2018).

Usually pIC50 stands for the negative decadic logarithm of the IC50, by convention in mol/L. High values mean a small IC50, low ones a large IC50.

pIC50: −log10 of the molar value.

The target of this experiment is human KDR protein in HEK-293 cells (Homo sapiens (Human), UniProt P35968). Kind of experiment: KDR Cell Assay (phospho-KDR in HEK-293 cells expressing inducible KDR). Type of experiment: cell-based. The following applies: pKDR Cell HEK 10% FBS IC50, HEK-293 cells expressing inducible KDR, VEGF stimulated. Summed up: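 HEK-293 cells with inducible human KDR were treated with compound for 1 h in DMEM (0.25% DMSO final), then lysed. Phospho-KDR was quantified by Meso Scale immunoassay, expressed as percent of control, and IC50 taken where a 4-parameter logistic fit crossed 50 POC.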
Sequence of human KDR protein in HEK-293 cells (P35968 20-1356): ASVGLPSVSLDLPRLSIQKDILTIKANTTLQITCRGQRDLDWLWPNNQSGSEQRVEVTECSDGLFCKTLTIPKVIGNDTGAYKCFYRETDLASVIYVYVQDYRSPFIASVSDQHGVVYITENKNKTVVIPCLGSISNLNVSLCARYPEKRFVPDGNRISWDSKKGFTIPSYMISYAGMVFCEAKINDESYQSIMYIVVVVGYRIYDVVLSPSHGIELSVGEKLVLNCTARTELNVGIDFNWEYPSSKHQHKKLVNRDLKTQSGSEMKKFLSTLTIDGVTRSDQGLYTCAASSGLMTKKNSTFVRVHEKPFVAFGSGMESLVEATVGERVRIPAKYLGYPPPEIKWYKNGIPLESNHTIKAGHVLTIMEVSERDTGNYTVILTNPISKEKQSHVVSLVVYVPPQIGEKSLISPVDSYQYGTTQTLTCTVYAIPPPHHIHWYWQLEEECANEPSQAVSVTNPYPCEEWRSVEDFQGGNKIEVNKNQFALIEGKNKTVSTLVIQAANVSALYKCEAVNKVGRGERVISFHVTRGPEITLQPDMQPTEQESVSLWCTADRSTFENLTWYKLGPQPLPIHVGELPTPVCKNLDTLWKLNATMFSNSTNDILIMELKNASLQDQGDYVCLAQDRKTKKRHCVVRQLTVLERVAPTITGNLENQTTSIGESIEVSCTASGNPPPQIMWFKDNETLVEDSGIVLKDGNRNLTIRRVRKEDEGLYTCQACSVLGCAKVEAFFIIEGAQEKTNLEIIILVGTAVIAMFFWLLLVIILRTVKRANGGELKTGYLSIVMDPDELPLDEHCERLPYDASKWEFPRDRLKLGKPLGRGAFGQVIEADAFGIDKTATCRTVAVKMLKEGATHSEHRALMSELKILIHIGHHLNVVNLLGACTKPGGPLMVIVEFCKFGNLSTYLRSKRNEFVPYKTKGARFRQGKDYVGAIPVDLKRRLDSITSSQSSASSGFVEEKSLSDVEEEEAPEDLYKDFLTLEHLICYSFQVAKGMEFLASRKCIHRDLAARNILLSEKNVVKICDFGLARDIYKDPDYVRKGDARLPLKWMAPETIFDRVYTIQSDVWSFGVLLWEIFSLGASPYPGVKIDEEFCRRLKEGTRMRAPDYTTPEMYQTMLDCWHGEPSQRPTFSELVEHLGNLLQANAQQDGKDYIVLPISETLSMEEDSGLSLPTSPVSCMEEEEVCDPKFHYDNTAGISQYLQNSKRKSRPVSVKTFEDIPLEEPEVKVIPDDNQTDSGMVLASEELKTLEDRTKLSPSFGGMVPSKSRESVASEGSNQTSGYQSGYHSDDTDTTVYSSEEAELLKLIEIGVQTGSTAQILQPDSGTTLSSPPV

In the case of `Cn1cc(-c2cc(-c3ccc(N4CCN(Cc5ncccn5)CC4)nc3)c3c(C#N)cnn3c2)cn1` [Example 472, 6-(1-methyl-1H-pyrazol-4-yl)-4-(6-(4-(pyrimidin-2-ylmethyl)piperazin-1-yl)pyridin-3-yl)pyrazolo[1,5-a]pyridine-3-carbonitrile], the pIC50 was 5.75.
In turn, `Cn1cc(-c2cc(-c3ccc(N4CCN(Cc5ccccn5)CC4)nc3)c3c(C#N)cnn3c2)cn1` [Example 473, 6-(1-methyl-1H-pyrazol-4-yl)-4-(6-(4-(pyridine-2-ylmethyl)piperazin-1-yl)pyridin-3-yl)pyrazolo[1,5-a]pyridine-3-carbonitrile] showed a pIC50 of 6.01. This pIC50 is 0.26 log units higher than that of the compound before.
In turn, `COc1ccc(CN2CCN(c3ccc(-c4cc(-c5cnn(C)c5)cn5ncc(C#N)c45)cn3)CC2)cn1` [Example 474, 4-(6-(4-((6-methoxypyridin-3-yl)methyl)piperazin-1-yl)pyridin-3-yl)-6-(1-methyl-1H-pyrazol-4-yl)pyrazolo[1,5-a]pyridine-3-carbonitrile] had a pIC50 of 6.52.
In the case of `Cn1cc(-c2cc(-c3ccc(N4C[C@@H]5C[C@H]4CN5Cc4ccccc4)nc3)c3c(C#N)cnn3c2)cn1` [Example 483, 4-(6-((1S,4S)-5-benzyl-2,5-diazabicyclo[2.2.1]heptan-2-yl)pyridin-3-yl)-6-(1-methyl-1H-pyrazol-4-yl)pyrazolo[1,5-a]pyridine-3-carbonitrile], the pIC50 is 7.11.
Compound `Cn1cc(-c2cc(-c3ccc(N4CC5CCC(C4)N5Cc4ccccc4)nc3)c3c(C#N)cnn3c2)cn1` [Example 484, 4-(6-(8-benzyl-3,8-diazabicyclo[3.2.1]octan-3-yl)pyridin-3-yl)-6-(1-methyl-1H-pyrazol-4-yl)pyrazolo[1,5-a]pyridine-3-carbonitrile] had a pIC50 of 6.68.
`Cn1cc(-c2cc(-c3ccc(N4CC5(CCN(Cc6ccccc6)CC5)C4)nc3)c3c(C#N)cnn3c2)cn1` [Example 485, 4-(6-(7-benzyl-2,7-diazaspiro[3.5]nonan-2-yl)pyridin-3-yl)-6-(1-methyl-1H-pyrazol-4-yl)pyrazolo[1,5-a]pyridine-3-carbonitrile] gave a pIC50 of 5.32. Against the preceding compound, the pIC50 is 1.36 log units lower.
The compound `Cn1cc(-c2cc(-c3ccc(N4CC5CC(C4)N5Cc4ccccc4)nc3)c3c(C#N)cnn3c2)cn1` [Example 489, 4-(6-(6-benzyl-3,6-diazabicyclo[3.1.1]heptan-3-yl)pyridin-3-yl)-6-(1-methyl-1H-pyrazol-4-yl)pyrazolo[1,5-a]pyridine-3-carbonitrile] showed a pIC50 of 7.71.
Turning to `Cn1cc(-c2cc(-c3ccc(N4C5CC4CN(Cc4ccccc4)C5)nc3)c3c(C#N)cnn3c2)cn1` [Example 490, 4-(6-(3-benzyl-3,6-diazabicyclo[3.1.1]heptan-6-yl)pyridin-3-yl)-6-(1-methyl-1H-pyrazol-4-yl)pyrazolo[1,5-a]pyridine-3-carbonitrile], the pIC50 is 6.21. Against the preceding compound, the pIC50 is 1.50 log units lower.
Then `Cn1cc(-c2cc(-c3ccc(N4C5CCC4CN(Cc4ccccc4)C5)nc3)c3c(C#N)cnn3c2)cn1` [Example 491, 4-(6-(3-benzyl-3,8-diazabicyclo[3.2.1]octan-8-yl)pyridin-3-yl)-6-(1-methyl-1H-pyrazol-4-yl)pyrazolo[1,5-a]pyridine-3-carbonitrile], with 6.92; and `Cn1cc(-c2cc(-c3ccc(N4CCC5(CC4)CN(C(=O)C4CC4)C5)nc3)c3c(C#N)cnn3c2)cn1` [Example 492, 4-(6-(2-(cyclopropanecarbonyl)-2,7-diazaspiro[3.5]nonan-7-yl)pyridin-3-yl)-6-(1-methyl-1H-pyrazol-4-yl)pyrazolo[1,5-a]pyridine-3-carbonitrile], with 6.25.
The value for `Cn1cc(-c2cc(-c3ccc(N4CCC5(CC4)CN(C(=O)C4CCC4)C5)nc3)c3c(C#N)cnn3c2)cn1` [Example 493, 4-(6-(2-(cyclobutanecarbonyl)-2,7-diazaspiro[3.5]nonan-7-yl)pyridin-3-yl)-6-(1-methyl-1H-pyrazol-4-yl)pyrazolo[1,5-a]pyridine-3-carbonitrile] was 6.03; that for `CN(C)CC(=O)N1CC2(CCN(c3ccc(-c4cc(-c5cnn(C)c5)cn5ncc(C#N)c45)cn3)CC2)C1` [Example 494, 4-(6-(2-(2-(dimethylamino)acetyl)-2,7-diazaspiro[3.5]nonan-7-yl)pyridin-3-yl)-6-(1-methyl-1H-pyrazol-4-yl)pyrazolo[1,5-a]pyridine-3-carbonitrile] was 5.74.
Then `Cn1cc(-c2cc(-c3ccc(N4CCC5(CC4)CN(C(=O)C4CCCCC4)C5)nc3)c3c(C#N)cnn3c2)cn1` [Example 495, 4-(6-(2-(cyclohexanecarbonyl)-2,7-diazaspiro[3.5]nonan-7-yl)pyridin-3-yl)-6-(1-methyl-1H-pyrazol-4-yl)pyrazolo[1,5-a]pyridine-3-carbonitrile], with 6.11; and `CCC(CC)C(=O)N1CC2(CCN(c3ccc(-c4cc(-c5cnn(C)c5)cn5ncc(C#N)c45)cn3)CC2)C1` [Example 496, 4-(6-(2-(2-ethylbutanoyl)-2,7-diazaspiro[3.5]nonan-7-yl)pyridin-3-yl)-6-(1-methyl-1H-pyrazol-4-yl)pyrazolo[1,5-a]pyridine-3-carbonitrile], with 5.67.
Consider `Cn1cc(-c2cc(-c3ccc(N4CCC5(CC4)CN(C(=O)OC4CCCC4)C5)nc3)c3c(C#N)cnn3c2)cn1` [Example 499, Cyclopentyl 7-(5-(3-cyano-6-(1-methyl-1H-pyrazol-4-yl)pyrazolo[1,5-a]pyridin-4-yl)pyridine-2-yl)-2,7-diazaspiro[3.5]nonane-2-carboxylate], for which the negative-log IC50 (pIC50) is 6.34.
`Cn1cc(-c2cc(-c3ccc(N4CCC5(CC4)CN(C(=O)N4CCCC4)C5)nc3)c3c(C#N)cnn3c2)cn1` [Example 500, 6-(1-methyl-1H-pyrazol-4-yl)-4-(6-(2-(pyrrolidine-1-carbonyl)-2,7-diazaspiro[3.5]nonan-7-yl)pyridin-3-yl)pyrazolo[1,5-a]pyridine-3-carbonitrile]: the negative-log IC50 (pIC50) is 6.34.
The value for `CN(C)C(=O)N1CC2(CCN(c3ccc(-c4cc(-c5cnn(C)c5)cn5ncc(C#N)c45)cn3)CC2)C1` [Example 501, 7-(5-(3-cyano-6-(1-methyl-1H-pyrazol-4-yl)pyrazolo[1,5-a]pyridin-4-yl)pyridin-2-yl)-N,N-dimethyl-2,7-diazaspiro[3.5]nonane-2-carboxamide] was 6.26; that for `CCN(CC)C(=O)N1CC2(CCN(c3ccc(-c4cc(-c5cnn(C)c5)cn5ncc(C#N)c45)cn3)CC2)C1` [Example 502, 7-(5-(3-cyano-6-(1-methyl-1H-pyrazol-4-yl)pyrazolo[1,5-a]pyridin-4-yl)pyridin-2-yl)-N,N-diethyl-2,7-diazaspiro[3.5]nonane-2-carboxamide] was 6.36; that for `Cn1cc(-c2cc(-c3ccc(N4CCC5(CCCN(C(=O)OC(C)(C)C)C5)CC4)nc3)c3c(C#N)cnn3c2)cn1` [Example 504, tert-Butyl 9-(5-(3-cyano-6-(1-methyl-1H-pyrazol-4-yl)pyrazolo[1,5-a]pyridin-4-yl)pyridine-2-yl)-2,9-diazaspiro[5.5]undecane-2-carboxylate] was 5.68.
Then `Cn1cc(-c2cc(-c3ccc(N4CCN(C5CCOC5)CC4)nc3)c3c(C#N)cnn3c2)cn1` (stereo not shown) [Example 505, 6-(1-methyl-1H-pyrazol-4-yl)-4-(6-(4-(tetrahydrofuran-3-yl)piperazin-1-yl)pyridin-3-yl)pyrazolo[1,5-a]pyridine-3-carbonitrile bis(2,2,2-trifluoroacetate)], with 5.88; and `Cn1cc(-c2cc(-c3ccc(N4CCC(Nc5ccccc5)CC4)nc3)c3c(C#N)cnn3c2)cn1` [Example 507, 6-(1-methyl-1H-pyrazol-4-yl)-4-(6-(4-(phenylamino)piperidin-1-yl)pyridin-3-yl)pyrazolo[1,5-a]pyridine-3-carbonitrile], with 7.60.
`Cn1cc(-c2cc(-c3ccc(N4CCC(Oc5ccccc5)CC4)nc3)c3c(C#N)cnn3c2)cn1` [Example 508] showed a negative logarithm of the IC50 (pIC50) of 8.54.
Consider `Cn1cc(-c2cc(-c3ccc(N4CCC(Oc5ccc(Cl)cc5)CC4)nc3)c3c(C#N)cnn3c2)cn1` [Example 509, 4-(6-(4-(4-chlorophenoxy)piperidin-1-yl)pyridin-3-yl)-6-(1-methyl-1H-pyrazol-4-yl)pyrazolo[1,5-a]pyridine-3-carbonitrile], for which the pIC50 is 8.04.
`Cn1cc(-c2cc(-c3ccc(N4CCC5(CCN(C(=O)OC(C)(C)C)CC5)CC4)nc3)c3c(C#N)cnn3c2)cn1` [Example 511, tert-butyl 9-(5-(3-cyano-6-(1-methyl-1H-pyrazol-4-yl)pyrazolo[1,5-a]pyridin-4-yl)pyridin-2-yl)-3,9-diazaspiro[5.5]undecane-3-carboxylate] had a pIC50 of 5.98.
In turn, `Cn1cc(-c2cc(-c3ccc(N4CCC5(CCCN5C(=O)OC(C)(C)C)CC4)nc3)c3c(C#N)cnn3c2)cn1` [Example 513, tert-butyl 8-(5-(3-cyano-6-(1-methyl-1H-pyrazol-4-yl)pyrazolo[1,5-a]pyridin-4-yl)pyridin-2-yl)-1,8-diazaspiro[4.5]decane-1-carboxylate] gave a pIC50 of 5.53.
The compound `Cn1cc(-c2cc(-c3ccc(N4CCC5(CC4)CCN5C(=O)OC(C)(C)C)nc3)c3c(C#N)cnn3c2)cn1` [Example 515, tert-butyl 7-(5-(3-cyano-6-(1-methyl-1H-pyrazol-4-yl)pyrazolo[1,5-a]pyridin-4-yl)pyridin-2-yl)-1,7-diazaspiro[3.5]nonane-1-carboxylate] had a pIC50 of 6.55.
The compound `Cn1cc(-c2cc(-c3ccc(N4CCC5(CC4)CC(NC(=O)OC(C)(C)C)C5)nc3)c3c(C#N)cnn3c2)cn1` [Example 516, tert-butyl (7-(5-(3-cyano-6-(1-methyl-1H-pyrazol-4-yl)pyrazolo[1,5-a]pyridin-4-yl)pyridin-2-yl)-7-azaspiro[3.5]nonan-2-yl)carbamate] showed a pIC50 of 6.76.
The value for `Cn1cc(-c2cc(-c3ccc(N4CCC5(CCN(C(=O)OC(C)(C)C)CC5)C4)nc3)c3c(C#N)cnn3c2)cn1` [Example 517, tert-butyl 2-(5-(3-cyano-6-(1-methyl-1H-pyrazol-4-yl)pyrazolo[1,5-a]pyridin-4-yl)pyridin-2-yl)-2,8-diazaspiro[4.5]decane-8-carboxylate] was 5.75.
